Results as given in patent publication US11578073B2, “Xanthine analogs as potent anti-West Nile viral agents” (Southern Research Institute, priority 2019, dated 2023).

Experiments:
West Nile virus = experiment: anti-West Nile virus activity of xanthine analogs in HEK293 cells; assay type: cell-based; settings: HEK293, read-out: EC90 (effective concentration to inhibit 90% of virus)
[1] = cell viability assay (cytotoxicity) in HEK293 cells; assay type: cell-based; settings: human, read-out: CC50 (50% cytotoxicity concentration)

Compound	EC90 (West Nile virus)	CC50 [1]
Cc1ccc(C)c(CN2CCN(c3nc4c(c(=O)[nH]c(=O)n4C)n3Cc3ccccc3C(F)(F)F)CC2)c1 [Compound 12, 8-(4-(2,5-Dimethylbenzyl)piperazin-1-yl)-3-methyl-7-(2-(trifluoromethyl)benzyl)-3,7-dihydro-1H-purine-2,6-dione]	1.1 µM	12 µM
Cc1ccc(C)c(CN2CCN(c3nc4c(c(=O)[nH]c(=O)n4C)n3Cc3cccc(F)c3)CC2)c1 [Compound 13, 8-(4-(2,5-Dimethylbenzyl)piperazin-1-yl)-7-(3-fluorobenzyl)-3-methyl-3,7-dihydro-1H-purine-2,6-dione]	5.7 µM	> 30 µM
Cc1ccc(C)c(CN2CCN(c3nc4c(c(=O)[nH]c(=O)n4C)n3Cc3ccc(F)cc3)CC2)c1 [Compound 14, 8-(4-(2,5-Dimethylbenzyl)piperazin-1-yl)-7-(4-fluorobenzyl)-3-methyl-3,7-dihydro-1H-purine-2,6-dione]	6.1 µM	> 30 µM
Cc1ccc(C)c(CN2CCN(c3nc4c(c(=O)[nH]c(=O)n4C)n3Cc3ccc(F)cc3F)CC2)c1 [Compound 15, 7-(2,4-Difluorobenzyl)-8-(4-(2,5-dimethylbenzyl)piperazin-1-yl)-3-methyl-3,7-dihydro-1H-purine-2,6-dione]	> 10 µM	> 40 µM
Cn1c(=O)[nH]c(=O)c2c1nc(N1CCN(Cc3ccc(C(C)(C)C)cc3)CC1)n2Cc1ccccc1C(F)(F)F [Compound 16, 8-(4-(4-(tert-Butyl)benzyl)piperazin-1-yl)-3-methyl-7-(2-(trifluoromethyl)benzyl)-3,7-dihydro-1H-purine-2,6-dione]	1.2 µM	12.4 µM
Cn1c(=O)[nH]c(=O)c2c1nc(N1CCN(Cc3ccc(C(C)(C)C)cc3)CC1)n2Cc1ccccc1OC(F)(F)F [Compound 17, 8-(4-(4-(tert-Butyl)benzyl)piperazin-1-yl)-3-methyl-7-(2-(trifluoromethoxy)benzyl)-3,7-dihydro-1H-purine-2,6-dione]	1.2 µM	10.2 µM
COC(=O)c1ccc(Cn2c(N3CCN(Cc4ccc(C(C)(C)C)cc4)CC3)nc3c2c(=O)[nH]c(=O)n3C)c(F)c1 [Compound 18, methyl 4-((8-(4-(4-(tert-butyl)benzyl)piperazin-1-yl)-3-methyl-2,6-dioxo-1,2,3,6-tetrahydro-7H-purin-7-yl)methyl)-3-fluorobenzoate]	5.2 µM	21.4 µM
Cn1c(=O)[nH]c(=O)c2c1nc(N1CCN(Cc3ccc(C(C)(C)C)cc3)CC1)n2Cc1ccc(C(=O)O)cc1F [Compound 19, 4-((8-(4-(4-(tert-butyl)benzyl)piperazin-1-yl)-3-methyl-2,6-dioxo-1,2,3,6-tetrahydro-7H-purin-7-yl)methyl)-3-fluorobenzoic Acid]	> 10 µM	> 40 µM
Cn1c(=O)[nH]c(=O)c2c1nc(N1CCN(Cc3ccc(C(C)(C)C)cc3)CC1)n2Cc1ccncc1F [Compound 20, 8-(4-(4-(tert-Butyl)benzyl)piperazin-1-yl)-7-((3-fluoropyridin-4-yl)methyl)-3-methyl-3,7-dihydro-1H-purine-2,6-dione]	2.6 µM	22.1 µM
Cn1c(=O)[nH]c(=O)c2c1nc(N1CCOCC1)n2Cc1ccccc1F [Compound 22, 7-(2-Fluorobenzyl)-3-methyl-8-morpholino-3,7-dihydro-1H-purine-2,6-dione]	> 10 µM	> 40 µM
Cc1ccc(C)c(N2CCN(c3nc4c(c(=O)[nH]c(=O)n4C)n3Cc3ccccc3F)CC2)c1 [Compound 26, 8-(4-(2,5-Dimethylphenyl)piperazin-1-yl)-7-(2-fluorobenzyl)-3-methyl-3,7-dihydro-1H-purine-2,6-dione]	4.5 µM	2.8 µM
Cc1cc(C)cc(N2CCN(c3nc4c(c(=O)[nH]c(=O)n4C)n3Cc3ccccc3F)CC2)c1 [Compound 27, 8-(4-(3,5-Dimethylphenyl)piperazin-1-yl)-7-(2-fluorobenzyl)-3-methyl-3,7-dihydro-1H-purine-2,6-dione]	10 µM	> 30 µM
Cn1c(=O)[nH]c(=O)c2c1nc(N1CCN(c3cccc(C(C)(C)C)c3)CC1)n2Cc1ccccc1F [Compound 28, 8-(4-(3-(tert-butyl)phenyl)piperazin-1-yl)-7-(2-fluorobenzyl)-3-methyl-3,7-dihydro-1H-purine-2,6-dione]	10 µM	> 40 µM
Cn1c(=O)[nH]c(=O)c2c1nc(N1CCN(c3ccc(C(F)(F)F)cc3)CC1)n2Cc1ccccc1F [Compound 30, 7-(2-Fluorobenzyl)-3-methyl-8-(4-(4-(trifluoromethyl)phenyl)piperazin-1-yl)-3,7-dihydro-1H-purine-2,6-dione]	6.5 µM	12.9 µM
Cn1c(=O)[nH]c(=O)c2c1nc(N1CCN(Cc3ccc(C(F)(F)F)cc3)CC1)n2Cc1ccccc1F [Compound 34, 7-(2-Fluorobenzyl)-3-methyl-8-(4-(4-(trifluoromethyl)benzyl)piperazin-1-yl)-3,7-dihydro-1H-purine-2,6-dione]	9.4 µM	> 30 µM
Cn1c(=O)[nH]c(=O)c2c1nc(N1CCN(Cc3ccc(F)cc3)CC1)n2Cc1ccccc1F [Compound 35, 7-(2-Fluorobenzyl)-8-(4-(4-fluorobenzyl)piperazin-1-yl)-3-methyl-3,7-dihydro-1H-purine-2,6-dione]	10.5 µM	> 30 µM
Cn1c(=O)[nH]c(=O)c2c1nc(N1CCN(Cc3ccc(C(C)(C)C)cc3)CC1)n2Cc1ccccc1F [Compound 36, 8-(4-(4-(tert-butyl)benzyl)piperazin-1-yl)-7-(2-fluorobenzyl)-3-methyl-3,7-dihydro-1H-purine-2,6-dione]	0.87 µM	> 30 µM
Cn1c(=O)[nH]c(=O)c2c1nc(N1CCN(Cc3ccc(C(C)(C)C)cc3)C(C(=O)O)C1)n2Cc1ccccc1F (stereo not drawn) [Compound 37, 1-(4-(tert-butyl)benzyl)-4-(7-(2-fluorobenzyl)-3-methyl-2,6-dioxo-2,3,6,7-tetrahydro-1H-purin-8-yl)piperazine-2-carboxylic Acid]	> 10 µM	> 40 µM
Cn1c(=O)[nH]c(=O)c2c1nc(N1CCN(Cc3ccc(C(C)(C)C)nc3)CC1)n2Cc1ccccc1F [Compound 38, 8-(4-((6-(tert-Butyl)pyridin-3-yl)methyl)piperazin-1-yl)-7-(2-fluorobenzyl)-3-methyl-3,7-dihydro-1H-purine-2,6-dione]	16 µM	34.2 µM
Cn1c(=O)[nH]c(=O)c2c1nc(N1CCN(Cc3ccc(C(C)(C)C#N)cc3)CC1)n2Cc1ccccc1F [Compound 39, 2-(4-((4-(7-(2-Fluorobenzyl)-3-methyl-2,6-dioxo-2,3,6,7-tetrahydro-1H-purin-8-yl)piperazin-1-yl)methyl)phenyl)-2-methylpropanenitrile]	> 30 µM	> 40 µM
Cn1c(=O)[nH]c(=O)c2c1nc(N1CCN(Cc3ccc(C(C)(C)O)cc3)CC1)n2Cc1ccccc1F [Compound 40, 7-(2-fluorobenzyl)-8-(4-(4-(2-hydroxypropan-2-yl)benzyl)piperazin-1-yl)-3-methyl-3,7-dihydro-1H-purine-2,6-dione]	> 10 µM	> 40 µM
CC(C)c1ccc(CN2CCN(c3nc4c(c(=O)[nH]c(=O)n4C)n3Cc3ccccc3F)CC2)cc1 [Compound 41, 7-(2-Fluorobenzyl)-8-(4-(4-isopropylbenzyl)piperazin-1-yl)-3-methyl-3,7-dihydro-1H-purine-2,6-dione]	1.1 µM	24 µM
C=C(C)c1ccc(CN2CCN(c3nc4c(c(=O)[nH]c(=O)n4C)n3Cc3ccccc3F)CC2)cc1 [Compound 42, 7-(2-Fluorobenzyl)-3-methyl-8-(4-(4-(prop-1-en-2-yl)benzyl)piperazin-1-yl)-3,7-dihydro-1H-purine-2,6-dione]	2.1 µM	22 µM
Cc1ccc(C)c(C(=O)N2CCN(c3nc4c(c(=O)[nH]c(=O)n4C)n3Cc3ccccc3F)CC2)c1 [Compound 43, 8-(4-(2,5-Dimethylbenzoyl)piperazin-1-yl)-7-(2-fluorobenzyl)-3-methyl-3,7-dihydro-1H-purine-2,6-dione]	> 10 µM	> 40 µM
Cn1c(=O)[nH]c(=O)c2c1nc(N1CCN(C(=O)c3ccc(C(C)(C)C)cc3)CC1)n2Cc1ccccc1F [Compound 44, 8-(4-(4-(tert-Butyl)benzoyl)piperazin-1-yl)-7-(2-fluorobenzyl)-3-methyl-3,7-dihydro-1H-purine-2,6-dione]	8.8 µM	> 30 µM
Cn1c(=O)[nH]c(=O)c2c1nc(N1CCN(C(=O)Cc3ccc(C(C)(C)C)cc3)CC1)n2Cc1ccccc1F [Compound 50, 8-(4-(2-(4-(tert-Butyl)phenyl)acetyl)piperazin-1-yl)-7-(2-fluorobenzyl)-3-methyl-3,7-dihydro-1H-purine-2,6-dione]	3.7 µM	> 30 µM
Cn1c(=O)[nH]c(=O)c2c1nc(N1CCC(C)(C)CC1)n2Cc1ccccc1F [Compound 52, 8-(4,4-Dimethylpiperidin-1-yl)-7-(2-fluorobenzyl)-3-methyl-3,7-dihydro-1H-purine-2,6-dione]	3.9 µM	> 30 µM
Cn1c(=O)[nH]c(=O)c2c1nc(N1CCC(c3ccccc3)CC1)n2Cc1ccccc1F [Compound 56, 7-(2-Fluorobenzyl)-3-methyl-8-(4-phenylpiperidin-1-yl)-3,7-dihydro-1H-purine-2,6-dione]	2.4 µM	10.7 µM
Cn1c(=O)[nH]c(=O)c2c1nc(N1CCC(c3cccc(F)c3)CC1)n2Cc1ccccc1F [Compound 57, 7-(2-Fluorobenzyl)-8-(4-(3-fluorophenyl)piperidin-1-yl)-3-methyl-3,7-dihydro-1H-purine-2,6-dione]	4.4 µM	> 30 µM
CC(C)(C)c1ccc(CN2CCN(c3nc4[nH]c(=O)[nH]c(=O)c4n3Cc3ccccc3F)CC2)cc1 [Compound 64, 8-(4-(4-(tert-butyl)benzyl)piperazin-1-yl)-7-(2-fluorobenzyl)-3,7-dihydro-1H-purine-2,6-dione]	9 µM	10 µM
